Assay results published in US8329617B2, “Compositions and methods for synergistic manipulation of plant and insect defenses” (Plant Bioscience Limited, priority 2007, dated 2012).
Entries after “also recorded” stand apart in the source; their conditions may differ.

Legend:
Myzus persicae, US1L [1] = assay: Bioassay: M. persicae protein on four pepper plants treated with cis-jasmone and PBO (1, 5 or 10 adults per plant); type: in vivo; conditions: for Av. Total Insect Protein μg: Bioassay, M. persicae (US1L), average of weeks 1 to 3; for μg (Av) Total Protein (M. persicae): four pepper plants, 7 days
Procedure: (§1) In all bioassay experiments the control plants were sprayed with deionised water. Initially seven treatments were used (Table 1) to test all chemical variables. All treatments were applied hydraulically with a spray simulator after which the plants were separated according to treatment (with cis-jasmone controls being separated) and left for 2 hours prior to insect application.
Analysis of protein in each treatment was conducted using Bradford Reagent: the data were analysed using the computer programme ‘GraFit’ (Erithacus software, Berkeley). To calculate the calibration curve a single logarithmic curve was used with regression analysis taking the values of the treatment wells (averages of the three readings taken: technical replicates). […]
To investigate developmental/fecundity effects of cis-jasmone+/−PBO E on Myzus persicae when applied to sweet peppers, one adult was added to the plants. Aphids were brushed from all plants and each leaf checked individually to ensure none remained. The aphid mass for each treatment was assessed for total protein (total from all four plants in the treatment) using Bradford reagent. The amount of aphid protein present on the plants 7 days after treatment was measured.
(§2) Myzus persicae was applied to sweet peppers at the rate of five adults were added per plant. Aphids were brushed from all plants and each leaf checked individually to ensure none remained. The aphid mass for each treatment was assessed for total protein (total from all four plants in the treatment) using Bradford reagent. The amount of aphid protein present on the plants 7 days after treatment was measured (for further information see Example 3).
as §2, with “persicae were” for “persicae was”, “of ten” for “of five”, “adults” for “adults were added”

aphid (M. persicae) = assay: Bioassay: M. persicae protein on potato, pepper and black mustard plants treated with BABA and/or PBO; type: in vivo, Myzus persicae; conditions: 3 adult apterous aphids per plant, 3 mM BABA root drench, PBO E spray, 7 days
Procedure: In all bioassay experiments the control plants were sprayed with deionised water. Initially seven treatments were used (Table 1b) to test all chemical variables. […] Analysis of protein in each treatment was conducted using Bradford Reagent: the data were analysed using the computer programme ‘GraFit’ (Erithacus software, Berkeley). To calculate the calibration curve a single logarithmic curve was used with regression analysis taking the values of the treatment wells (averages of the three readings taken: technical replicates). Laboratory tests were undertaken to compare effects of combined and single treatments of PBO and BABA on control of aphid (M. persicae) on potato, pepper, and black mustard and whitefly (B. tabaci) on cotton and tomato. All tests included untreated and blank (water) controls, and both single and combined applications of PBO and BABA. […] To investigate developmental/fecundity effects of BABA+/−PBO E (see Table 1) on Myzus persicae when applied to plants, adults were added to the plants and then using Bradford reagent, the amount of aphid protein present on the plants 7 days after treatment was measured. Esterase levels were also tested after the same interval to check for the possible induction of metabolic enzymes when using BABA. Aphids were brushed from all plants and each leaf checked individually to ensure none remained. The aphid mass for each treatment was weighed before total protein was assessed (total from all five plants in the treatment).

first instar aphids = assay: BABA root drench concentration series, aphid population growth on brassica and potato; type: in vivo; conditions: series 1-10 mM, aphids weighed after 1 week
Procedure: Using example crops of brassica [Brassica nigra] and potato [Solanum tuberosum]; BABA was added as a drench to the roots to ‘prime’ the plants in a series of concentrations (1-10 mM). The plants were artificially infested with a set number of first instar aphids (characterised as insecticide-resistant or -susceptible) and left for 1 week. At the end of this period, all aphids were removed and weighed to determine the growth of the population. This identified the optimal concentration of BABA to use to produce maximum secondary metabolites within the plant. All concentrations were lower than that which could cause direct damage to the crop. 3 mM BABA was identified as optimal for the conditions employed.

whitefly (B. tabaci) = assay: Bioassay: B. tabaci pupae protein on cotton and tomato plants treated with BABA and/or PBO; type: in vivo, Bemisia tabaci; conditions: 3 mM BABA root drench, PBO E spray
Procedure: In all bioassay experiments the control plants were sprayed with deionised water. Initially seven treatments were used (Table 1b) to test all chemical variables. […] Analysis of protein in each treatment was conducted using Bradford Reagent: the data were analysed using the computer programme ‘GraFit’ (Erithacus software, Berkeley). To calculate the calibration curve a single logarithmic curve was used with regression analysis taking the values of the treatment wells (averages of the three readings taken: technical replicates). Laboratory tests were undertaken to compare effects of combined and single treatments of PBO and BABA on control of aphid (M. persicae) on potato, pepper, and black mustard and whitefly (B. tabaci) on cotton and tomato. All tests included untreated and blank (water) controls, and both single and combined applications of PBO and BABA. […] Adults were added to the plant 2 days after treatment, and removed after 24 h. The eggs laid were then left for 16-18 days until they reached the pupal stage. The total pupal protein on the plant was tested using the Bradford reagent.

Bemisia tabaci, GUA MIX [2] = assay: Glasshouse simulator trial: B. tabaci pupae protein on tomato plants treated with cis-jasmone and PBO; type: in vivo; conditions: for μg (Av) Total Protein (B. tabaci pupae): simulator, ten tomato plants per treatment, ten adult whiteflies per plant, ~16 days
Procedure: as §1
(§3) Analysis of protein in each treatment was conducted using Bradford Reagent: the data were analysed using the computer programme ‘GraFit’ (Erithacus software, Berkeley). To calculate the calibration curve a single logarithmic curve was used with regression analysis taking the values of the treatment wells (averages of the three readings taken: technical replicates).
(§4) A new method for the investigation of the development of whitefly to the pupal stage on tomatoes and cotton was used. […] These were checked for protein after ˜16 days using Bradford reagent.
(§5) Adults were added to the plant 2 h after treatment, and removed after 24 h. The eggs laid were then left for 16-18 days until they reached the pupal stage. The total pupal protein on the plant was tested using the Bradford reagent.
As described above 10 adult females were released on to each tomato plant, ten/treatment and after ˜16 days pupae were removed using a scalpel blade. These were checked for total protein using Bradford reagent. Plants were put into glasshouse simulators (one/treatment) and kept at 28° C., 12 L: […] and 80% R.H.

Myzus persicae, US1L [3] = assay: Glasshouse simulator trial: M. persicae protein on pepper plants treated with cis-jasmone and PBO; type: in vivo; conditions: for μg (Av) Total Protein (M. persicae): simulator, 25 pepper plants per treatment, three adult apterous aphids per plant, 7 days
Procedure: as §1, §3
To investigate developmental/fecundity effects of cis-jasmone+/−PBO (see Table 1) on Myzus persicae when applied to sweet peppers, adults were added to the plants and then using Bradford reagent, the amount of aphid protein present on the plants 7 days after treatment was measured. Esterase levels were also tested after the same interval to check for the possible induction of metabolic enzymes when using cis-jasmone. Aphids were brushed from all plants and each leaf checked individually to ensure none remained. The aphid mass for each treatment was weighed before total protein was assessed (total from all […] plants in the treatment).
Myzus persicae were applied to sweet peppers at the rate of three adults per plant. Aphids were brushed from all plants and each leaf checked individually to ensure none remained. The aphid mass for each treatment was assessed for total protein (total from all 25 plants in the treatment) using Bradford reagent. The amount of aphid protein present on the plants 7 days after treatment was measured. Plants were put into glasshouse simulators (one/treatment) and kept at 28° C., 12 L: […] and 80% R.H.

Bemisia tabaci, GUA MIX [4] = assay: Bioassay: B. tabaci pupae protein on one tomato plant treated with cis-jasmone and PBO; type: in vivo; conditions: for μg (Av) Total Protein (B. tabaci pupae): one tomato plant, ten adult whiteflies, ~16 days
Procedure: as §1, §3, §4, §5

B. tabaci = B. tabaci pupae protein on cotton plants treated with PBO and/or microencapsulated cis-jasmone; type: in vivo, Bemisia tabaci; conditions: five cotton plants per treatment, 5 adult female whiteflies per plant, ~16 days
Procedure: as §4, §5

Aphis gossypii = assay: A. gossypii protein on cotton plants treated with propyl gallate and cis-jasmone; type: in vivo; conditions: A. gossypii on cotton
[5] = five adult apterous aphids per plant, week 1
[6] = five adult apterous aphids per plant, week 2
[7] = five adult apterous aphids per plant, week 3
[8] = one adult apterous aphid per plant, week 1
[9] = one adult apterous aphid per plant, week 2
[10] = one adult apterous aphid per plant, week 3
[11] = ten adult apterous aphids per plant, week 1
[12] = ten adult apterous aphids per plant, week 2
[13] = ten adult apterous aphids per plant, week 3

2-(2-butoxyethoxy)ethyl 6-propylpiperonyl ether [PBO T + Acetone]
Av. Total Insect Protein μg (Myzus persicae, US1L [1]; 1 adult/plant): 11.610 µg | Av. Total Insect Protein μg (Myzus persicae, US1L [1]; 5 adults/plant): 20.370 µg | Av. Total Insect Protein μg (Myzus persicae, US1L [1]; 10 adults/plant): 34.830 µg | μg (Av) Total Protein (M. persicae) (Myzus persicae, US1L [1]; [5]): 22.30 µg | μg (Av) Total Protein (M. persicae) (Myzus persicae, US1L [1]; [6]): 16.50 µg | μg (Av) Total Protein (M. persicae) (Myzus persicae, US1L [1]; [7]): 22.30 µg | μg (Av) Total Protein (M. persicae) (Myzus persicae, US1L [1]; [8]): 12.23 µg | μg (Av) Total Protein (M. persicae) (Myzus persicae, US1L [1]; [9]): 12.30 µg | μg (Av) Total Protein (M. persicae) (Myzus persicae, US1L [1]; [10]): 10.30 µg | μg (Av) Total Protein (M. persicae) (Myzus persicae, US1L [1]; [11]): 37.68 µg | μg (Av) Total Protein (M. persicae) (Myzus persicae, US1L [1]; [12]): 33.6 µg | μg (Av) Total Protein (M. persicae) (Myzus persicae, US1L [1]; [13]): 33.2 µg

CC(N)CC(=O)O (stereo not drawn) [BABA, beta aminobutyric acid]
Protein A (Av) (aphid (M. persicae); five black mustard plants, week 1): 14.56 µg | Protein A (Av) (aphid (M. persicae); five black mustard plants, week 2): 15.10 µg | Protein A (Av) (aphid (M. persicae); five black mustard plants, week 3): 14.10 µg | Protein A (Av) (aphid (M. persicae); five pepper plants, week 1): 15.10 µg | Protein A (Av) (aphid (M. persicae); five pepper plants, week 2): 16.10 µg | Protein A (Av) (aphid (M. persicae); five pepper plants, week 3): 15.00 µg | Protein A (Av) (aphid (M. persicae); five potato plants, week 1): 7.80 µg | Protein A (Av) (aphid (M. persicae); five potato plants, week 2): 7.90 µg | Protein A (Av) (aphid (M. persicae); five potato plants, week 3): 8.30 µg | optimal concentration of BABA (first instar aphids): 3 mM | Protein WF (Av) (whitefly (B. tabaci); cotton plants, ~16 days, week 1): 0.1 µg | Protein WF (Av) (whitefly (B. tabaci); cotton plants, ~16 days, week 2): 0.2 µg | Protein WF (Av) (whitefly (B. tabaci); cotton plants, ~16 days, week 3): 0.2 µg | Protein WF (Av) (whitefly (B. tabaci); tomato plants, week 1): 0.1 µg | Protein WF (Av) (whitefly (B. tabaci); tomato plants, week 2): 0.23 µg | Protein WF (Av) (whitefly (B. tabaci); tomato plants, week 3): 0.15 µg

CC/C=C\CC1=C(C)CCC1=O [CJ, cis-jasmone]
Av. Total Insect Protein μg (Bemisia tabaci, GUA MIX [2]; Simulator, Bemisia tabaci (GUA MIX) on Tomato (Carousel), average of weeks 1 to 3): 0.104 µg | μg (Av) Total Protein (B. tabaci pupae) (Bemisia tabaci, GUA MIX [2]; week 1): 0.109 µg | μg (Av) Total Protein (B. tabaci pupae) (Bemisia tabaci, GUA MIX [2]; week 2): 0.102 µg | μg (Av) Total Protein (B. tabaci pupae) (Bemisia tabaci, GUA MIX [2]; week 3): 0.100 µg | Av. Total Insect Protein μg (Myzus persicae, US1L [1]; 1 adult/plant): 7.690 µg | Av. Total Insect Protein μg (Myzus persicae, US1L [1]; 5 adults/plant): 11.330 µg | Av. Total Insect Protein μg (Myzus persicae, US1L [1]; 10 adults/plant): 25.210 µg | μg (Av) Total Protein (M. persicae) (Myzus persicae, US1L [1]; [5]): 11.00 µg | μg (Av) Total Protein (M. persicae) (Myzus persicae, US1L [1]; [6]): 11.99 µg | μg (Av) Total Protein (M. persicae) (Myzus persicae, US1L [1]; [7]): 11.00 µg | μg (Av) Total Protein (M. persicae) (Myzus persicae, US1L [1]; [8]): 11.00 µg | μg (Av) Total Protein (M. persicae) (Myzus persicae, US1L [1]; [9]): 3.27 µg | μg (Av) Total Protein (M. persicae) (Myzus persicae, US1L [1]; [10]): 8.80 µg | μg (Av) Total Protein (M. persicae) (Myzus persicae, US1L [1]; [11]): 25.14 µg | μg (Av) Total Protein (M. persicae) (Myzus persicae, US1L [1]; [12]): 25.4 µg | μg (Av) Total Protein (M. persicae) (Myzus persicae, US1L [1]; [13]): 25.1 µg | Av. Total Insect Protein μg (Myzus persicae, US1L [3]; Simulator, M. persicae (US1L) on Pepper (BellBoy), average of weeks 1 to 3): 13.842 µg | μg (Av) Total Protein (M. persicae) (Myzus persicae, US1L [3]; week 1): 13.82 µg | μg (Av) Total Protein (M. persicae) (Myzus persicae, US1L [3]; week 2): 13.8 µg | μg (Av) Total Protein (M. persicae) (Myzus persicae, US1L [3]; week 3): 13.9 µg | Av. Total Insect Protein μg (Bemisia tabaci, GUA MIX [4]; Bioassay, Bemisia tabaci (GUA MIX), average of weeks 1 to 3): 0.167 µg | μg (Av) Total Protein (B. tabaci pupae) (Bemisia tabaci, GUA MIX [4]; week 1): 0.1 µg | μg (Av) Total Protein (B. tabaci pupae) (Bemisia tabaci, GUA MIX [4]; week 2): 0.2 µg | μg (Av) Total Protein (B. tabaci pupae) (Bemisia tabaci, GUA MIX [4]; week 3): 0.2 µg | Protein WF (Av) (B. tabaci; week 1): 0.03 µg | Protein WF (Av) (B. tabaci; week 2): 0.06 µg

CCCOC(=O)c1cc(O)c(O)c(O)c1 [propyl gallate, Propyl 3,4,5-trihydroxybenzoate]
effect of propyl gallate on efficacy of microencapsulated cis-Jasmone (in words) (Aphis gossypii): significantly (p<0.05) improves the efficacy of microencapsulated cis-Jasmone; also recorded: potentiates microencapsulated cis-Jasmone at least as well as PBO
